Tests used:
[1] = system: genotype A, "Long" strain RSV; assay: RSV-A assay (CPE protection in Hep-2 cells, ATPlite readout); assay type: cell-based, Human respiratory syncytial virus (HRSV); details: human respiratory syncytial virus, RSV-A Long strain, MOI 0.1, CPE protection, read-out: Human RSV-A (“Long”) EC50
How it was run: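 Hep-2, 8,000 cells/well, MOI 0.1 (PFU- or TCID50-based); 2-fold compound series, duplicates; 5 d incubation; ATPlite luminescence readout; EC50.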

[2] = system: HMPV clinical isolate TN/1501/A1; assay: HMPV antiviral assay Method-B (clinical isolate TN/1501/A1 in LLC-MK2 cells, ATP-Lite readout); assay type: cell-based, Human metapneumovirus (HMPV); details: human metapneumovirus, LLC-MK2, 144 h, hMPV WT1501 (clinical isolate TN/1501/A1), 6 days
How it was run: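 LLC-MK2 cells infected in suspension with TN/1501/A1 at MOI 0.014 in serum-free medium with 2 μg/mL TPCK-trypsin (final), incubated 6 days at 37° C. Compounds tested in duplicate, 10-point 3-fold dilutions from 10 μM. Cell health read by ATP-Lite luminescence, normalised to virus-only and cells-only controls; EC50 by four-parameter logistic fit.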

SMILES	EC50 [1] [nM]	EC50 [2] [nM]
Cc1cnc2c(OC(F)F)cc(C(=O)NC[C@](O)(c3cc4c(c(-c5ccc(F)cc5)n3)OC[C@@]4(C(N)=O)C(F)F)C(F)(F)F)cc2c1 [Example 1007]	< 200	< 500
Cc1cnc2c(OC(F)F)cc(C(=O)NC[C@](O)(c3cc4c(c(-c5ccc(F)c(Cl)c5)n3)OC[C@]4(C(N)=O)C(F)F)C(F)(F)F)cc2c1 [Example 1008]	> 200	> 500
Cc1cnc2c(OC(F)F)cc(C(=O)NC[C@](O)(c3cc4c(c(-c5ccc(F)c(Cl)c5)n3)OC[C@@]4(C(N)=O)C(F)F)C(F)(F)F)cc2c1 [Example 1009]	< 200	< 500
COc1cc(C(=O)NC[C@](O)(c2cc3c(c(-c4ccc5c(c4)OC(F)(F)O5)n2)OC[C@]3(C(N)=O)C(F)F)C2CC2)cc2cn(C3CC3)nc12 [Example 1010]	> 200	> 500
COc1cc(C(=O)NC[C@](O)(c2cc3c(c(-c4ccc5c(c4)OC(F)(F)O5)n2)OC[C@@]3(C(N)=O)C(F)F)C2CC2)cc2cn(C3CC3)nc12 [Example 1011]	< 200	< 500
COc1cc(C(=O)NC[C@](O)(c2cc3c(c(-c4ccc5c(c4)OC(F)(F)O5)n2)OC[C@]3(C(N)=O)C(F)F)C2CC2)cc2cc(C3CC3)nn12 [Example 1012]	> 200	> 500
COc1cc(C(=O)NC[C@](O)(c2cc3c(c(-c4ccc5c(c4)OC(F)(F)O5)n2)OC[C@@]3(C(N)=O)C(F)F)C2CC2)cc2cc(C3CC3)nn12 [Example 1013]	< 200	< 500
COc1cc(C(=O)NC[C@](O)(c2cc3c(c(-c4ccc5c(c4)OC(F)(F)O5)n2)OC[C@]3(C(N)=O)C(F)F)C2CC2)cc2cc(Cl)c(C)nc12 [Example 1014]	< 200	< 500
COc1cc(C(=O)NC[C@](O)(c2cc3c(c(-c4ccc5c(c4)OC(F)(F)O5)n2)OC[C@@]3(C(N)=O)C(F)F)C2CC2)cc2cc(Cl)c(C)nc12 [Example 1015]	< 200	< 500
COc1cc(C(=O)NC[C@](O)(c2cc3c(c(-c4ccc(F)c(Cl)c4)n2)OC[C@]3(C(N)=O)C(F)F)C(F)(F)F)cc2sc(C3CC3)nc12 [Example 1016]	> 200	> 500
COc1cc(C(=O)NC[C@](O)(c2cc3c(c(-c4ccc(F)c(Cl)c4)n2)OC[C@@]3(C(N)=O)C(F)F)C(F)(F)F)cc2sc(C3CC3)nc12 [Example 1017]	< 200	< 500
COc1cc(C(=O)NC[C@](O)(c2cc3c(c(-c4ccc(F)c(Cl)c4)n2)OC[C@]3(C(N)=O)C(F)F)C(F)(F)F)cc2sc(C)nc12 [Example 1018]	> 200	> 500
COc1cc(C(=O)NC[C@](O)(c2cc3c(c(-c4ccc(F)c(Cl)c4)n2)OC[C@@]3(C(N)=O)C(F)F)C(F)(F)F)cc2sc(C)nc12 [Example 1019]	< 200	< 500
Cc1cnc2c(OC(F)F)cc(C(=O)NC[C@](O)(c3cc4c(c(-c5ccc6c(c5)OC(F)(F)O6)n3)OC[C@]4(C(N)=O)C(F)F)C3CC3)cc2c1 [Example 1020]	> 200	> 500
Cc1cnc2c(OC(F)F)cc(C(=O)NC[C@](O)(c3cc4c(c(-c5ccc6c(c5)OC(F)(F)O6)n3)OC[C@@]4(C(N)=O)C(F)F)C3CC3)cc2c1 [Example 1021]	< 200	< 500
COc1cc(C(=O)NC[C@](O)(c2cc3c(c(-c4ccc(F)cc4)n2)OC[C@]3(C(N)=O)C(F)F)C2CC2)cc2cn(C3CC3)nc12 [Example 1022]	> 200	> 500
COc1cc(C(=O)NC[C@](O)(c2cc3c(c(-c4ccc(F)cc4)n2)OC[C@@]3(C(N)=O)C(F)F)C2CC2)cc2cn(C3CC3)nc12 [Example 1023]	< 200	< 500
COc1cc(C(=O)NC[C@](O)(c2cc3c(c(-c4ccc(F)c(Cl)c4)n2)OC[C@]3(C(N)=O)C(F)F)C2CC2)cc2cn(C3CC3)nc12 [Example 1024]	> 200	> 500
COc1cc(C(=O)NC[C@](O)(c2cc3c(c(-c4ccc(F)c(Cl)c4)n2)OC[C@@]3(C(N)=O)C(F)F)C2CC2)cc2cn(C3CC3)nc12 [Example 1025]	< 200	< 500
Cc1cnc2c(OC(F)F)cc(C(=O)NC[C@](O)(c3cc4c(c(-c5ccc(F)cc5)n3)OC[C@]4(C(N)=O)C(F)F)C3CC3)cc2c1 [Example 1026]	> 200	> 500
Cc1cnc2c(OC(F)F)cc(C(=O)NC[C@](O)(c3cc4c(c(-c5ccc(F)cc5)n3)OC[C@@]4(C(N)=O)C(F)F)C3CC3)cc2c1 [Example 1027]	< 200	< 500
Cc1cnc2c(OC(F)F)cc(C(=O)NC[C@](O)(c3cc4c(c(-c5ccc(F)c(Cl)c5)n3)OC[C@]4(C(N)=O)C(F)F)C3CC3)cc2c1 [Example 1028]	> 200	> 500

SMILES	EC50 [1] [nM]	EC50 [2] [nM]
Cc1cnc2c(OC(F)F)cc(C(=O)NC[C@](O)(c3cc4c(c(-c5ccc(F)c(Cl)c5)n3)OC[C@@]4(C(N)=O)C(F)F)C3CC3)cc2c1 [Example 1029]	< 200	< 500
COc1cc(C(=O)NC[C@](O)(c2cc3c(c(-c4ccc(F)cc4)n2)OC[C@]3(C(N)=O)C(F)F)C2CC2)cc2cc(Cl)c(C)nc12 [Example 1030]	< 200	> 500
COc1cc(C(=O)NC[C@](O)(c2cc3c(c(-c4ccc(F)cc4)n2)OC[C@@]3(C(N)=O)C(F)F)C2CC2)cc2cc(Cl)c(C)nc12 [Example 1031]	< 200	< 500
COc1cc(C(=O)NC[C@](O)(c2cc3c(c(-c4ccc(F)c(Cl)c4)n2)OC[C@]3(C(N)=O)C(F)F)C2CC2)cc2cc(Cl)c(C)nc12 [Example 1032]	> 200	> 500
COc1cc(C(=O)NC[C@](O)(c2cc3c(c(-c4ccc(F)c(Cl)c4)n2)OC[C@@]3(C(N)=O)C(F)F)C2CC2)cc2cc(Cl)c(C)nc12 [Example 1033]	< 200	< 500
COc1cc(C(=O)NC[C@](O)(c2cc3c(c(-c4ccc5c(c4)OC(F)(F)O5)n2)OC[C@]3(C(N)=O)C(F)F)C(F)(F)F)cc2cn(C3CC3)nc12 [Example 1034]	> 200	> 500
COc1cc(C(=O)NC[C@](O)(c2cc3c(c(-c4ccc5c(c4)OC(F)(F)O5)n2)OC[C@@]3(C(N)=O)C(F)F)C(F)(F)F)cc2cn(C3CC3)nc12 [Example 1035]	< 200	< 500
COc1cc(C(=O)NC[C@](O)(c2cc3c(c(-c4ccc5c(c4)OC(F)(F)O5)n2)OC[C@]3(C(N)=O)C(F)F)C(F)(F)F)cc2cc(Cl)c(C)nc12 [Example 1036]	> 200	> 500
COc1cc(C(=O)NC[C@](O)(c2cc3c(c(-c4ccc5c(c4)OC(F)(F)O5)n2)OC[C@@]3(C(N)=O)C(F)F)C(F)(F)F)cc2cc(Cl)c(C)nc12 [Example 1037]	< 200	< 500
COc1cc(C(=O)NC[C@](O)(c2cc3c(c(-c4ccc(F)c(F)c4F)n2)OC[C@]3(C(N)=O)C(F)F)C(F)(F)F)cc2cn(C3CC3)nc12 [Example 1038]	> 200	> 500
COc1cc(C(=O)NC[C@](O)(c2cc3c(c(-c4ccc(F)c(F)c4F)n2)OC[C@@]3(C(N)=O)C(F)F)C(F)(F)F)cc2cn(C3CC3)nc12 [Example 1039]	< 200	< 500
COc1cc(C(=O)NC[C@](O)(c2cc3c(c(-c4ccc(F)c(F)c4F)n2)OC[C@]3(C(N)=O)C(F)F)C(F)(F)F)cc2cc(Cl)c(C)nc12 [Example 1040]	< 200	> 500
COc1cc(C(=O)NC[C@](O)(c2cc3c(c(-c4ccc(F)c(F)c4F)n2)OC[C@@]3(C(N)=O)C(F)F)C(F)(F)F)cc2cc(Cl)c(C)nc12 [Example 1041]	< 200	< 500
COc1cc(C(=O)NC[C@](O)(c2cc3c(c(-c4ccc5c(c4)OC(F)(F)O5)n2)OC[C@@]3(C(N)=O)C(F)F)C2CC2)cc2cn(C3(F)CC3)nc12 [Example 1042]	< 200	< 500
Cc1cnc2c(OC(F)F)cc(C(=O)NC[C@](O)(c3cc4c(c(-c5ccc6c(c5)OC(F)(F)O6)n3)OC[C@@]4(C(N)=O)C(F)F)C(F)(F)F)cc2c1 [Example 1043]	< 200	< 500
COc1cc(C(=O)NC[C@](O)(c2cc3c(c(-c4ccc5c(c4)OC(F)(F)O5)n2)OC[C@@]3(C(N)=O)C(F)F)C2CC2)cc2cn(C(F)F)nc12 [Example 1044]	< 200	< 500
COc1cc(C(=O)NC[C@](O)(c2cc3c(c(-c4ccc(F)c(Cl)c4)n2)OC[C@@]3(C(N)=O)C(F)F)C2CC2)cc2cn(C(F)F)nc12 [Example 1045]	< 200	< 500
COc1cc(C(=O)NC[C@](O)(c2cc3c(c(-c4ccc(F)c(Cl)c4)n2)OC[C@@]3(CF)C(N)=O)C(F)(F)F)cc2cc(Cl)c(C)nc12 [Example 1046]	> 200	> 500
COc1cc(C(=O)NC[C@](O)(c2cc3c(c(-c4ccc(F)c(Cl)c4)n2)OC[C@]3(CF)C(N)=O)C(F)(F)F)cc2cc(Cl)c(C)nc12 [Example 1047]	< 200	< 500
COc1cc(C(=O)NC[C@](O)(c2cc3c(c(-c4ccc(F)c(Cl)c4)n2)OC[C@]3(CF)C(N)=O)C(F)(F)F)ccc1OC1CC1 [Example 1049]	< 200	< 500
COc1cc(C(=O)NC[C@](O)(c2cc3c(c(-c4ccc(F)c(Cl)c4)n2)OCC3(CF)C(N)=O)C(F)(F)F)cc2cn(C3CC3)nc12 (stereo partly shown) [Example 1050]	< 200	< 500
COc1cc(C(=O)NC[C@](O)(c2cc3c(c(-c4ccc(F)c(Cl)c4)n2)OC[C@@]3(CF)C(N)=O)C(F)(F)F)cc2cn(C3CC3)nc12 [Example 1051]	< 200	> 500

Reference: patent US12612412B2, “Antiviral heterocyclic compounds” (Enanta Pharmaceuticals, Inc., priority 2021, dated 2026)
